Experimental data taken from paper PMC10287695, “Non-covalent inhibitors of thioredoxin glutathione reductase with schistosomicidal activity in vivo” (Nature Communications, 2023).
“And” between values parts separate entries of the source, which are not always exact repeats. Equal values may be shown once. Read-outs that look alike come from different tables or passages of the source. Marks after values point to notes of the source that are not given here.

What was measured:
[1] = test system: S. mansoni newly transformed schistosomula (NTS); assay: Schistosomicidal activity ex vivo, NTS (Cell Titer Glo); format: cell-based; details: for LD50 ex vivo S. mansoni NTS: 24 h exposure, Cell TiterGlo; for % viability: S. mansoni NTS
Method: Oncomelania hupensis subsp. hupensis, Chinese strain, infected with S. japonicum, Chinese strain, and Biomphalaria glabrata, strain NMRI, infected with S. mansoni, strain NMRI, were provided by the NIAID Schistosomiasis Resource Center for distribution through BEI Resources, NIAID, NIH. After infections were patent, snails were exposed to bright light for 1 hr to obtain cercariae. Cercariae were mechanically transformed to schistosomula. Briefly, cercariae were placed on ice for 30 min and then centrifuged at 350 × g for 10 mins. The supernatant was decanted and 2 ml of serum-free M199 medium was added to cercarial pellets and vortexed for 1 min until cercarial tails were detached. NTS were purified by layering on 4 °C Percoll gradient suspension containing Eagle’s minimum essential medium, penicillin-streptomycin (10,000 U per ml penicillin/10,000 U per ml streptomycin), and 1 M HEPES in 0.85% NaCl with cercariae suspension and centrifuged at 500 × g for 15 min. Cercarial pellets were resuspended and washed thrice in serum-free M199 medium and collected at 100 × g for 5 min. NTS (240) were transferred to U-bottom 96 well assay plates containing 200 µl of M199 medium supplemented with 5.5 mM D-glucose, penicillin-streptomycin and 5% heat inactivated fetal bovine serum and incubated at 37 °C in a 5% CO2 incubator overnight.
DMSO formulated compounds were diluted with phenol red free M199 medium or RPMI medium for NTS or juvenile and adult worms, respectively, at <1% DMSO final concentrations. NTS, juvenile and adult worms from overnight cultures were tested against compounds in triplicate. Controls were treated with DMSO alone or 5 µM AF as a positive control in appropriate medium. Worm viability was assessed at 24 or 72 h by measuring ATP content of worms using Cell Titer Glo Assay (Promega) as described. Schistosome viabilities in the presence of the compounds were assessed using this formula: % Viability = Averages of Test / Averages of DMSO Control x 100.

S. mansoni adult worms = assay: Schistosomicidal activity ex vivo, adult worms (Cell Titer Glo), alone or with channel blockers; format: cell-based; details: for LD50 ex vivo S. mansoni adult: 24 h exposure; for viability at 10 µM / viability at 30 µM / viability at 50 µM / viability at 100 µM / viability at 5 µM / viability at 15 µM: Schistosoma mansoni
Method: Three-week old, female Swiss-Webster mice obtained from the Charles River were housed in the Comparative Research Center of Rush University Medical Center. Mice were infected by percutaneous tail exposure to about 200 S. mansoni or 50 S. japonicum cercaria for adult worms and about 1000 cercaria for juvenile S. mansoni worms through natural transdermal penetration of the cercariae for 1 h[81].
DMSO formulated compounds were diluted with phenol red free M199 medium or RPMI medium for NTS or juvenile and adult worms, respectively, at <1% DMSO final concentrations. NTS, juvenile and adult worms from overnight cultures were tested against compounds in triplicate. Controls were treated with DMSO alone or 5 µM AF as a positive control in appropriate medium. […] Schistosome viabilities in the presence of the compounds were assessed using this formula: % Viability = Averages of Test / Averages of DMSO Control x 100.

Human TrxR1 = target: T1, Human TrxR1 (Homo sapiens, UniProt Q16881); assay: Human TrxR1 enzyme inhibition (DTNB reduction); format: biochemical; details: for inhibition at 30 µM: compound 30 µM
T1 construct: made in house
T1 sequence (Q16881 1-499 isoform Q16881-5): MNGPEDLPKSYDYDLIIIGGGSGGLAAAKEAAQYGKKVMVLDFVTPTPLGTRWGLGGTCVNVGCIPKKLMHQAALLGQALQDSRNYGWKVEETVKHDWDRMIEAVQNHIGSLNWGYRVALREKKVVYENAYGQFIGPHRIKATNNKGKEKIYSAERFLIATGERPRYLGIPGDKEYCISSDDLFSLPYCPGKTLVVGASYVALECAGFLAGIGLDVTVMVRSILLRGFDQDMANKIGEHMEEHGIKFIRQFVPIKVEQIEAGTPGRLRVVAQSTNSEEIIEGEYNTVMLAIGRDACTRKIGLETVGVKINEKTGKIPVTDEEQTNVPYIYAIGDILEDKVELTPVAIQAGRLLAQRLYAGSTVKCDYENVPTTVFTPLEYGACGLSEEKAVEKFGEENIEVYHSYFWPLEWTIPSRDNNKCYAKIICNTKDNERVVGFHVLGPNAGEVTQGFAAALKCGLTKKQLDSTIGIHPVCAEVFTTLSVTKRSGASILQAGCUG
Method: Recombinant TGR, human TrxR1, B. malayi (Bm)TrxR and human GR proteins were expressed and purified as described[20],[69],[79]. The codon optimized sequence for P. falciparum (PfTrxR, https://www.ncbi.nlm.nih.gov/protein/CAA60574.1/) with an N-terminal 6-His tag was synthesized and inserted into pET15b (GenScript) and expressed in BL21 (DE3) cells and purified as described for human GR[20]. TGR and TrxR enzyme inhibition assays were performed in triplicate at 25 °C as described[20] in 0.1 M potassium phosphate (pH 7.4), 10 mM EDTA, 100 µM NADPH and 0.01% Tween-20. […] The reaction was started with addition of an equal volume of DTNB (6 mM) and NADPH (100 µM) and the increase in A412 during the first 3 min was recorded. […] The reaction was preincubated for 15 min. Activity was initiated with the addition of 1 mM GSSG and 100 μM NADPH and initial rates of NADPH oxidation were monitored at 340 nm. The reactions were done in triplicate. The IC50 was calculated in GraphPad Prism.

Vero cells = assay: Cytotoxicity in mammalian cells (Cell Titer Glo); format: cell-based; details: for EC50: Chlorocebus sabaeus, Vero, estimate from raw data, read-out: EC50 viability of Vero cells
Method: Following overnight incubation, formulated DMSO-compound stock solutions were diluted with DMEM at <1% DMSO final concentrations. […] Vero cells treated similarly with different concentrations of PZQ, MZM and AF (Cayman Chemicals) were used as positive controls.

[2] = 15 min preincubation (enzyme + 100 µM NADPH + compound), read-out: Human TrxR1 IC50
[3] = S. mansoni adult worms, Conc. 30 µM, read-out: % viability
[4] = S. mansoni adult worms, Conc. 50 µM, read-out: % viability
[5] = Schistosoma mansoni, 72 h, read-out: % viability, S. mansoni NTS
[6] = hsTrxR, 15 minutes pre-incubation
[7] = hsTrxR, 15 minutes pre-incubation, compound 66.7 µM, read-out: % inhibition
[8] = 6 h preincubation, read-out: Human TrxR1 IC50 (µM) or inhibition (%) at 66.7 µM: IC50

Row | Structure (SMILES) | LD50 ex vivo S. mansoni NTS [1] | LD50 ex vivo S. mansoni adult (S. mansoni adult worms; compound alone) | IC50 (Human TrxR1; [2]) | LD50 ex vivo VERO (Vero cells; 24-hour exposure) | viability at 1 µM ([1]; Schistosoma mansoni) | viability at 5 µM ([1]; Schistosoma mansoni) | viability at 10 µM ([1]; Schistosoma mansoni) | viability at 15 µM ([1]; Schistosoma mansoni) | viability at 30 µM ([1]; Schistosoma mansoni) | viability at 50 µM ([1]; Schistosoma mansoni) | viability at 30 µM (S. mansoni adult worms; [3]) | viability at 50 µM (S. mansoni adult worms; [4]) | LD50 ex vivo VERO (Vero cells; African green monkey, 24 h) | EC50 (Vero cells) | inhibition at 30 µM (Human TrxR1; [6]) | inhibition at 66.7 µM (Human TrxR1; [7]) | IC50 (Human TrxR1; [8]) | also measured
1 | CC(=O)OC[C@H]1O[C@@H]([S-])[C@H](OC(C)=O)[C@@H](OC(C)=O)[C@@H]1OC(C)=O.CCP(CC)CC.[Au+] [AF, auranofin, reference compound] | 0.31 ± 0.02 µM | 1.1 ± 0.04 µM | 0.02 µM | 0.59 ± 0.11 µM |  |  |  |  |  |  |  |  |  |  |  |  |  | % viability ([1]; Conc. 0.25 µM): 60.0497%; % viability ([1]; Conc. 0.5 µM): 36.3261%; % viability ([1]; Conc. 1 µM): 18.3613%; % viability ([1]; Conc. 2 µM): 10.7245%; % viability ([1]; Conc. 5 µM): 0.4904%; % viability (S. mansoni adult worms; S. mansoni adult worms, Conc. 0.5 µM): 85.422%; % viability (S. mansoni adult worms; S. mansoni adult worms, Conc. 1 µM): 43.1217%; % viability (S. mansoni adult worms; S. mansoni adult worms, Conc. 2 µM): 23.1816%; % viability (S. mansoni adult worms; S. mansoni adult worms, Conc. 5 µM): 3.259%; % viability (Vero cells; 0.5 µM): 57.3284%; % viability (Vero cells; 1 µM): 33.3378%; % viability (Vero cells; 5 µM): 0.2783%; % viability (Vero cells; 10 µM): 0.2356%; % viability (Vero cells; 20 µM): 0.164%; % viability (Vero cells; 30 µM): 0.07463%
2 | C[C@@H]1[C@H]2C[C@@H](C[C@H]1NCc1nc3ccccc3n1C1CCCCCC1)C2(C)C [Compound 8] | 9.4 ± 0.74 µM | 22.3 ± 0.2 µM and 22.3 ± 0.20 µM | 4.9 ± 1.72 µM |  | 91.9% | 84.8% | 33.1% | 28.2% | 11.9% | 1.87% | 30.6% | 14% | 32.7 ± 2.99 µM | > 50 µM |  |  |  | viability at 0.1 µM ([1]; Schistosoma mansoni): 99.8%; viability at 100 µM ([1]; Schistosoma mansoni): 0.303%; viability at 10 µM (S. mansoni adult worms; 10 µM, compound alone, read-out: % viability, adult worms): 85.4%; viability at 30 µM (S. mansoni adult worms; 30 µM, compound alone, read-out: % viability, adult worms): 30.6%; viability at 50 µM (S. mansoni adult worms; 50 µM, compound alone, read-out: % viability, adult worms): 14%; viability at 100 µM (S. mansoni adult worms; 100 µM, compound alone, read-out: % viability, adult worms): 6.59%; viability at 10 µM (S. mansoni adult worms; S. mansoni adult worms, Conc. 10 µM, read-out: % viability): 85.4%; viability at 100 µM (S. mansoni adult worms; S. mansoni adult worms, Conc. 100 µM, read-out: % viability): 6.59%; inhibition at 2.5 µM (Human TrxR1; hsTrxR, 15 minutes pre-incubation, compound 2.5 µM): 37.2%; inhibition at 5 µM (Human TrxR1; hsTrxR, 15 minutes pre-incubation, compound 5 µM): 49.7%; inhibition at 10 µM (Human TrxR1; hsTrxR, 15 minutes pre-incubation, compound 10 µM): 61.6%
3 | C#CCN(Cc1nc(-c2ccccc2)oc1C)[C@@H]1C[C@@H]2C[C@H]([C@H]1C)C2(C)C [Compound 6] | 17.5 ± 3.7 µM | 15.7 ± 0.64 µM | > 66.7 µM |  |  | 81.1% |  | 57% | 30.8% | 26.4% | 42% | 23.3% | >100^a µM |  | 1.95% | 2.61% |  | LD50 NTS after 72 h exposure ([1]; 72 h exposure): 7.8 ± 2.36 µM; viability at 1.25 µM [1, 5]: 86%; viability at 2.5 µM [1, 5]: 73.8%; viability at 5 µM [1, 5]: 55.5%; viability at 10 µM [1, 5]: 45.1%; viability at 5 µM (S. mansoni adult worms; S. mansoni adult worms, Conc. 5 µM, read-out: % viability): 88.5%; viability at 15 µM (S. mansoni adult worms; S. mansoni adult worms, Conc. 15 µM, read-out: % viability): 50.6%; inhibition at 66.7 µM (Human TrxR1; 66.7 µM, 6 h preincubation, read-out: Human TrxR1 IC50 (µM) or inhibition (%) at 66.7 µM: inhibition): 28.9%
4 | Cc1oc(-c2ccccc2)nc1CN[C@@H]1C[C@@H]2C[C@H]([C@H]1C)C2(C)C [Compound 3] | 4.3 ± 0.20 µM | 12.1 ± 2.44 µM | > 66.7 µM |  |  |  |  |  |  |  |  |  | 36.1 ± 3.0 µM | > 50 µM |  |  | 42.7 ± 3.95 µM | 
5 | C[C@@H]1N=C(c2ccccc2Cl)c2cc([N+](=O)[O-])ccc2NC1=O [MZM, meclonazepam, reference compound] | 13.7 ± 0.87 µM | 26.9 ± 0.97 µM |  | >50^a µM | 87.2% | 64.8% | 57.8% |  | 35.2% |  |  |  |  |  |  |  |  | viability at 0.5 µM ([1]; Schistosoma mansoni): 93.3%; viability at 20 µM ([1]; Schistosoma mansoni): 43.9%; viability at 5 µM (S. mansoni adult worms): 91.9%; viability at 15 µM (S. mansoni adult worms): 69.8%; viability at 30 µM (S. mansoni adult worms): 48.7%; viability at 50 µM (S. mansoni adult worms): 31.3%; Human TrxR1 IC50 (µM) or inhibition (%) at 66.7 µM: inhibition (Human TrxR1; 66.7 µM, 6 h preincubation): n.i.^e
6 | Cc1oc(C2CCCCC2)nc1CN[C@@H]1C[C@@H]2C[C@H]([C@H]1C)C2(C)C [Compound 4] | 0.85 ± 0.11 µM | 12.6 ± 1.86 µM | > 66.7 µM |  |  |  |  |  |  |  |  |  | >50^a µM |  | 26.9% | 40.2% | 19 ± 5.72 µM | inhibition at 15 µM (Human TrxR1; hsTrxR, 15 minutes pre-incubation, compound 15 µM): 14.3%
